The values that follow come from publication PMC10497682, “Synthesis and cytotoxicity evaluation of novel 1,8-acridinedione derivatives bearing phthalimide moiety as potential antitumor agents” (Scientific Reports, 2023).

Type in all cases: cell-based
In assay [1] the test system is MDA-MB-231 cells. The assay is described as follows: Morphological modifications under phase-contrast microscope, MDA-MB-231. The note with it: IC50 dose, 48 h, vs untreated control. On the procedure:
(§1) The present study aimed to investigate the in vitro effects of five synthetic compounds (8c, 8f, 8h, 8i, and 8L) on the morphological modifications of four different cancer cell lines (A431, A549, H460, and MDA-MB-231) compared with untreated control cells (Fig. 5). The cells were treated with the compounds at IC50 doses for 48 h, and the morphological changes were observed under a phase-contrast microscope.
(§2) All cells were treated with compounds (8c, 8f, 8h, 8i and 8L) at IC50 doses for 48 h as compared to untreated control cells.
(§3) The cell lines were obtained from American Type Culture Collection (ATCC). With the usage of the Thiazolyl Blue Tetrazolium Bromide (MTT) method, various concentrations of the compounds (8c, 8f, 8h, 8i, and 8L) were evaluated for their cytotoxicity against the HSF, H460, A431, A549, and MDA-MB-231 cell lines. […] 200 µL dimethyl sulfoxide (DMSO) was added to each well and shook again for 5 min at 150 rpm, and then the viability of the cells was calculated by measuring the optical density at 630 nm subtracted from optical density at 570 nm. The relative cell viability (%) was determined as the given formula: Therelativecellviability%=ODS/ODC×100 whereas ODS is the mean optical density of sample, ODC is the mean OD of control group. […]

For assay [2], the system named is breast cancer cells (MDA-MB-231). In words: MTT cytotoxicity assay, MDA-MB-231. On the procedure:
(§4) The cell lines were obtained from American Type Culture Collection (ATCC). With the usage of the Thiazolyl Blue Tetrazolium Bromide (MTT) method, various concentrations of the compounds (8c, 8f, 8h, 8i, and 8L) were evaluated for their cytotoxicity against the HSF, H460, A431, A549, and MDA-MB-231 cell lines. In brief HSF, H460, A431, A549 and MDA-MB-231 cell lines cells (10 × 10^3) were cultured in 96 well plate for overnight at 37 °C, 5% CO2 and 88% humidity. The total volume of used DMEM supplemented medium and the synthesized compounds supernatant was 200 µL with final concentrations of 25, 50, 100, 150 and 200 µg/ml. The plate was incubated at 37 °C, 5% CO2 for 48 h. After incubation, debris and dead cells were removed by washing three times with fresh medium. […] 200 µL dimethyl sulfoxide (DMSO) was added to each well and shook again for 5 min at 150 rpm, and then the viability of the cells was calculated by measuring the optical density at 630 nm subtracted from optical density at 570 nm. The relative cell viability (%) was determined as the given formula: Therelativecellviability%=ODS/ODC×100 whereas ODS is the mean optical density of sample, ODC is the mean OD of control group. […] Tumor-selectivity index (TS value) was determined by dividing the mean IC50 against normal cells by the mean IC50 against tumor cells. […]
(In general: Tetrazolium dyes change colour on reduction, which living cells bring about.)

Assay [3] relates to A549 cells. In words: Morphological modifications under phase-contrast microscope, A549. The note with it: IC50 dose, 48 h, vs untreated control. On the procedure:
as §1, §2, §3

For assay [4], the system named is H460 cells. The assay is described as follows: Morphological modifications under phase-contrast microscope, H460. The note with it: IC50 dose, 48 h, vs untreated control. On the procedure: as §1, §2, §3
The subject of assay [5] is A431 cells. In words: Morphological modifications under phase-contrast microscope, A431. The note with it: IC50 dose, 48 h, vs untreated control. On the procedure:
as §1, §2, §3

Assay [6] has as its system EGFR. In words: qRT-PCR mRNA expression of EGFR in A431 cells. The note with it: IC50 concentration, 2 days, fold vs untreated control. The procedure: (§5) In this study, the impact of potent antitumor compounds (8c, 8f, 8h, 8i, and 8L) on the expression levels of four tumor regulating genes, namely Topoisomerase II beta (TOP2B), mitogen-activated protein kinase (MAP K) (p38), tumor protein interacted with the mouse double minute 2 homolog (p53), and Epidermal growth factor receptor (EGFR), was investigated in skin cancer cells (A431). Evaluation the relative changes in mRNA expression levels of four key genes by performing quantitative real-time PCR (qRT-PCR) before and after treatment for 2 days with IC50 concentrations of compounds (8c, 8f, 8h, 8i, and 8L). Total RNA was extracted from the cells using the Gene JET RNA Purification Kit (Thermo Scientific, USA), followed by cDNA synthesis using the cDNA Synthesis Kit (Thermo Scientific, USA) protocol. SYBR green kit and specific primers (Forward/Reverse) were used for qRT-PCR: 5′-[…]-3’/5’-[…]-3′ for p38, 5′-[…]-3′/5′-[…]-3′ for p53, 5’-[…]-3’/5’-[…]-3’ for TOP2B, and 5’-[…]-3’/5’-[…]-3’ for EGFR. The expression levels of the tested genes were determined by using the 2^−ΔΔCT equation to assess any changes in upregulation and/or downregulation of gene expression.

In assay [7] the test system is TOP2B. The assay is described as follows: qRT-PCR mRNA expression of TOP2B in A431 cells. The note with it: IC50 concentration, 2 days, fold vs untreated control. On the procedure:
as §5
(In general: Quantitative PCR measures a nucleic acid by following its amplification.)

The subject of assay [8] is p53. The assay is described as follows: qRT-PCR mRNA expression of p53 in A431 cells. The note with it: IC50 concentration, 2 days, fold vs untreated control. The procedure:
as §5

Assay [9] deals with skin cancer cells (A431). In words: MTT cytotoxicity assay, A431. The following applies: for selectivity index (SI): mean IC50 against normal cells (HSF) divided by IC50 against A431. On the procedure:
(§6) The cell lines were obtained from American Type Culture Collection (ATCC). With the usage of the Thiazolyl Blue Tetrazolium Bromide (MTT) method, various concentrations of the compounds (8c, 8f, 8h, 8i, and 8L) were evaluated for their cytotoxicity against the HSF, H460, A431, A549, and MDA-MB-231 cell lines. In brief HSF, H460, A431, A549 and MDA-MB-231 cell lines cells (10 × 10^3) were cultured in 96 well plate for overnight at 37 °C, 5% CO2 and 88% humidity. The total volume of used DMEM supplemented medium and the synthesized compounds supernatant was 200 µL with final concentrations of 25, 50, 100, 150 and 200 µg/ml. The plate was incubated at 37 °C, 5% CO2 for 48 h. After incubation, debris and dead cells were removed by washing three times with fresh medium. […] of MTT solution (5 mg/ml of MTT in PBS buffer) was added to each well and shook for 5 min at 150 rpm to thoroughly mix the MTT into the media. The cells were incubated at 37 °C and 5% CO2 for 3–5 h to metabolize MTT by viable cells. 200 µL dimethyl sulfoxide (DMSO) was added to each well and shook again for 5 min at 150 rpm, and then the viability of the cells was calculated by measuring the optical density at 630 nm subtracted from optical density at 570 nm. The relative cell viability (%) was determined as the given formula: Therelativecellviability%=ODS/ODC×100 whereas ODS is the mean optical density of sample, ODC is the mean OD of control group. […] Tumor-selectivity index (TS value) was determined by dividing the mean IC50 against normal cells by the mean IC50 against tumor cells. Thus obtained TS values seem to reflect the in vivo antitumor activity even though these cells were different types of cells (epithelial oral squamous cell carcinoma cell lines versus mesenchymal normal oral cells).

Assay [10] deals with p38. The assay is described as follows: qRT-PCR mRNA expression of p38 in A431 cells. The note with it: IC50 concentration, 2 days, fold vs untreated control. On the procedure:
as §5

Assay [11] deals with lung cancer cells (H460). In words: MTT cytotoxicity assay, H460. The following applies: for selectivity index (SI): mean IC50 against normal cells (HSF) divided by IC50 against H460. On the procedure: as §6
For assay [12], the system named is lung cancer cells (A549). The assay is described as follows: MTT cytotoxicity assay, A549. On the procedure: as §4

In brackets after ≈: the same amount, converted by molar mass.

The IC50 is the concentration needed to halve the response being measured. Higher therefore signals weaker potency in that assay. For the compound `CC1(C)CC(=O)C2=C(C1)N(CCOC(=O)CN1C(=O)c3ccccc3C1=O)C1=C(C(=O)CC(C)(C)C1)C2c1ccc2c(c1)OCO2` [Compound 8L, 2-(9-(benzo[d][1,3]dioxol-5-yl)-3,3,6,6-tetramethyl-1,8-dioxo-2,3,4,5,6,7,8,9-octahydroacridin-10(1H)-yl)ethyl 2-(1,3-dioxoisoindolin-2-yl)acetate], in assay [1], the morphological modifications entry is “significant cell damage and alterations in cell morphology”. The IC50 in [2] (Homo sapiens, MDA-MB-231 cells, MTT, 48 h, mean ± SEM) came out at 27.7 ± 2.7 µg/mL (≈ 44.3 µM). Further, in [2] (mean IC50 against normal cells (HSF) divided by IC50 against MDA-MB-231), the “selectivity index (SI)” value was 4.4.

Turning to `CC1(C)CC(=O)C2=C(C1)N(CCOC(=O)CN1C(=O)c3ccccc3C1=O)C1=C(C(=O)CC(C)(C)C1)C2c1ccc(F)cc1` [Compound 8c, 2-(9-(4-fluorophenyl)-3,3,6,6-tetramethyl-1,8-dioxo-2,3,4,5,6,7,8,9-octahydroacridin-10(1H)-yl) ethyl 2-(1,3-dioxoisoindolin-2-yl) acetate], the morphological modifications entry in [3] is “significant cell damage and alterations in the morphology”; in assay [4] it was “noticeable cell damage and alterations in the morphology”.

With `CC1(C)CC(=O)C2=C(C1)N(CCOC(=O)CN1C(=O)c3ccccc3C1=O)C1=C(C(=O)CC(C)(C)C1)C2c1ccc(-c2ccccc2)cc1` [Compound 8f, 2-(9-([1,1'-biphenyl]-4-yl)-3,3,6,6-tetramethyl-1,8-dioxo-2,3,4,5,6,7,8,9-octahydroacridin-10(1H)-yl) ethyl 2-(1,3-dioxoisoindolin-2-yl) acetate], the morphological modifications result in assay [5] is “significant cell damage and alteration in the morphology”; in assay [3] it was “significant cell damage and alterations in the morphology”; in assay [4] it was “noticeable cell damage and alterations in the morphology”; in assay [1], “significant cell damage and alterations in cell morphology”. Moreover, the “relative change in mRNA expression level of EGFR” value in assay [6] was “lowest relative change”. The “relative change in mRNA expression level of TOP2B” value in assay [7] is “lowest relative change”. Besides, the “relative change in mRNA expression level of p53” value in assay [8] is on record as “highest relative change”. Also, the IC50 was 11.9 ± 3.3 µg/mL in assay [9] (Homo sapiens, A-431, A431 cells, MTT, 48 h, mean ± SEM) and 24.6 ± 3.4 µg/mL in [11] (Homo sapiens, NCI-H460, H460 cells, MTT, 48 h, mean ± SEM). Also, the “selectivity index (SI)” value in assay [9] was found to be 15.9; in assay [11] it was 7.7. The “relative change in mRNA expression level of p38” value in assay [10] is “highest relative change”.

`COc1ccc(C2C3=C(CC(C)(C)CC3=O)N(CCOC(=O)CN3C(=O)c4ccccc4C3=O)C3=C2C(=O)CC(C)(C)C3)cc1OC` [Compound 8h, 2-(9-(3,4-dimethoxyphenyl)-3,3,6,6-tetramethyl-1,8-dioxo-2,3,4,5,6,7,8,9-octahydroacridin-10(1H)-yl) ethyl 2-(1,3-dioxoisoindolin-2-yl) acetate]: in assay [6], the “relative change in mRNA expression level of EGFR” value is “lowest relative change”. Moreover, the “relative change in mRNA expression level of TOP2B” value in assay [7] is reported as “lowest relative change”. In addition, the “selectivity index (SI)” value in assay [9] worked out at 4.5; in assay [11], 3.5.

Turning to `COc1ccc(C2C3=C(CC(C)(C)CC3=O)N(CCOC(=O)CN3C(=O)c4ccccc4C3=O)C3=C2C(=O)CC(C)(C)C3)cc1` [Compound 8i, 2-(9-(4-methoxyphenyl)-3,3,6,6-tetramethyl-1,8-dioxo-2,3,4,5,6,7,8,9-octahydroacridin-10(1H)-yl) ethyl 2-(1,3-dioxoisoindolin-2-yl) acetate], the morphological modifications entry in assay [5] was “significant cell damage and alteration in the morphology”. The compound also returned an IC50 in assay [12] (Homo sapiens, A549 cells, MTT, 48 h, mean ± SEM) of 37.4 ± 4.5 µg/mL. In [12] (mean IC50 against normal cells (HSF) divided by IC50 against A549), the “selectivity index (SI)” value was 4.0.
